Laboratory results from ChEMBL document CHEMBL4507287, “Data for DCP probe MRL-650” (2021).
Calls of active or inactive are those of the source. The calls are words filed in the database; no cut-off is given here.

Tests used:
[1] = GPCRScan assay: inhibition of GABA/PBR; design: species or system Rattus norvegicus; radioligand conc. used [nm] 0.3 – 2.0, parental cells brain tissue
[2] = biological target: Sigma intracellular receptor 2 (Homo sapiens, UniProt Q5BJF2); assay: GPCRScan assay: inhibition of Sigma 2; design: radioligand conc. used [nm] 5.0, parental cells HEKT
[3] = biological target: Sigma non-opioid intracellular receptor 1 (Homo sapiens, UniProt Q99720); assay: GPCRScan assay: inhibition of Sigma 1; design: radioligand conc. used [nm] 4.0 – 5.0, parental cells HEKT
Cannabinoid receptor 1 [4] = biological target: T1, Cannabinoid receptor 1 (Homo sapiens, UniProt P21554); assay: Functional activation assay
[5] = biological target: Mitogen-activated protein kinase kinase kinase 5 (Homo sapiens) (UniProt Q99683); conditions: Compound concentration 1000.0 nM
Sequence of Mitogen-activated protein kinase kinase kinase 5 (Homo sapiens) (Q99683 whole entry): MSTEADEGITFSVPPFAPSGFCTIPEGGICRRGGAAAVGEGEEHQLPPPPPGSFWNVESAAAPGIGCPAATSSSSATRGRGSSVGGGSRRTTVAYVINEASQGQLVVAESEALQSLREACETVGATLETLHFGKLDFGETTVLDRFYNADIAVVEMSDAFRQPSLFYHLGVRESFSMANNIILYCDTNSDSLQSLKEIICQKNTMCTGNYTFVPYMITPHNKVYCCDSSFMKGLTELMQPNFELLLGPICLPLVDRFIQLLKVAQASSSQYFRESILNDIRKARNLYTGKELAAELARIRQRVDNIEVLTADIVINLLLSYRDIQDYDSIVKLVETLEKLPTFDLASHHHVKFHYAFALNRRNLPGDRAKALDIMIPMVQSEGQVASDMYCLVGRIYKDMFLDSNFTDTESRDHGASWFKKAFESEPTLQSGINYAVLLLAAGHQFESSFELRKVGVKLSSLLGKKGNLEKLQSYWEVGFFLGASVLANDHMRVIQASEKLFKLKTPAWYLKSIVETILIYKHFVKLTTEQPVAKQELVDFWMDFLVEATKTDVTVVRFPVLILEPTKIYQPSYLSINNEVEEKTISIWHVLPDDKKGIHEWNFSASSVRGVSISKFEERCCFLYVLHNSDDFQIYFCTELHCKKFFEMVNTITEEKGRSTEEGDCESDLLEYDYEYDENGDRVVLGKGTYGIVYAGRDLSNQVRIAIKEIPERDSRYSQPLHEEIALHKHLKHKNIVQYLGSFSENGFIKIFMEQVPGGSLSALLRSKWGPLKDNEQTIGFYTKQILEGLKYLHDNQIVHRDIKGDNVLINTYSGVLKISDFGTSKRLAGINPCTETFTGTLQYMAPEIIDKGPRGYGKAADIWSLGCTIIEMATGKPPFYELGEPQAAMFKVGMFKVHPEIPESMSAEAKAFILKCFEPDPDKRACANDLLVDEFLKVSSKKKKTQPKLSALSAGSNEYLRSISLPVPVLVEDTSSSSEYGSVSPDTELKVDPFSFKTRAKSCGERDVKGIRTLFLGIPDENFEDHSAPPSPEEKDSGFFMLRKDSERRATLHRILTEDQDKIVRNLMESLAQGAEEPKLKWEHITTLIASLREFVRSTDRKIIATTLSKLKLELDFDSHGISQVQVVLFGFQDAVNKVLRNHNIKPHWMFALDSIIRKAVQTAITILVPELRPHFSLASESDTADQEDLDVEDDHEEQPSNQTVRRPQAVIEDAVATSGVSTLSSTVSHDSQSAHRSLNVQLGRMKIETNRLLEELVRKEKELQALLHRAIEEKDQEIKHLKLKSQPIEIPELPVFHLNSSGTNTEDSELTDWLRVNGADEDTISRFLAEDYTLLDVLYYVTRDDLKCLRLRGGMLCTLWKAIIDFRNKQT

[6] = biological target: BMP-2-inducible protein kinase (Homo sapiens) (UniProt Q9NSY1); conditions: Compound concentration 1000.0 nM
[7] = biological target: Cyclin-dependent kinase 8 (Homo sapiens) (UniProt P49336); conditions: Compound concentration 1000.0 nM
Sequence of Cyclin-dependent kinase 8 (Homo sapiens) (P49336 whole entry, canonical isoform): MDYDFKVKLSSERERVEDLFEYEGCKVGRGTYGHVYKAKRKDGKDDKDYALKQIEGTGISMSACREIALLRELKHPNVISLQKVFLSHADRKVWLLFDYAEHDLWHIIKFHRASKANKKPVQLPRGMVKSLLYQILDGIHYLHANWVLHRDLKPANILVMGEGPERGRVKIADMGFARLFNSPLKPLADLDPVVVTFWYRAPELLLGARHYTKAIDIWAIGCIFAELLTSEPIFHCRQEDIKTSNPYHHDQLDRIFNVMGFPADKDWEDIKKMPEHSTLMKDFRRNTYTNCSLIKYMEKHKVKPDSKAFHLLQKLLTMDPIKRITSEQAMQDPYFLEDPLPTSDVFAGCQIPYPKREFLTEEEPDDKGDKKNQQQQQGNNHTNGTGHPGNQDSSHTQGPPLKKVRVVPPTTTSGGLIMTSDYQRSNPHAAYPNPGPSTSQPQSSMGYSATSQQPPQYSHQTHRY

[8] = biological target: Casein kinase I isoform delta (Homo sapiens) (UniProt P48730); conditions: Compound concentration 1000.0 nM
Sequence of Casein kinase I isoform delta (Homo sapiens) (P48730 whole entry, looked up, canonical isoform): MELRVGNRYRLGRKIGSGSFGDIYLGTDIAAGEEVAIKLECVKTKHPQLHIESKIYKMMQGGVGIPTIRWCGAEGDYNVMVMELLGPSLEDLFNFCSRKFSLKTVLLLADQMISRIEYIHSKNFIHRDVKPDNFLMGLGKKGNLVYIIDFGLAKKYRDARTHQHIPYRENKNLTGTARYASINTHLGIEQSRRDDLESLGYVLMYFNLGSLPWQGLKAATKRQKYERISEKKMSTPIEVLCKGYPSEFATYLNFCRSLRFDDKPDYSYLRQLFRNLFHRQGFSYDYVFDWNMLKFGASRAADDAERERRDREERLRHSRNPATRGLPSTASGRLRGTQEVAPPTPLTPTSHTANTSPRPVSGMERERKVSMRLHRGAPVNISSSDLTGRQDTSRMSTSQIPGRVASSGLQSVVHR

[9] = biological target: Casein kinase I isoform gamma-1 (Homo sapiens) (UniProt Q9HCP0); conditions: Compound concentration 1000.0 nM
[10] = system: Epidermal growth factor receptor (Homo sapiens), P00533 [L861Q]; conditions: Compound concentration 1000.0 nM
[11] = system: Receptor-type tyrosine-protein kinase FLT3 (Homo sapiens), P36888 [D835V]; conditions: Compound concentration 1000.0 nM
[12] = biological target: Mast/stem cell growth factor receptor Kit (Homo sapiens) (UniProt P10721); conditions: Compound concentration 1000.0 nM
Sequence of Mast/stem cell growth factor receptor Kit (Homo sapiens) (P10721 whole entry): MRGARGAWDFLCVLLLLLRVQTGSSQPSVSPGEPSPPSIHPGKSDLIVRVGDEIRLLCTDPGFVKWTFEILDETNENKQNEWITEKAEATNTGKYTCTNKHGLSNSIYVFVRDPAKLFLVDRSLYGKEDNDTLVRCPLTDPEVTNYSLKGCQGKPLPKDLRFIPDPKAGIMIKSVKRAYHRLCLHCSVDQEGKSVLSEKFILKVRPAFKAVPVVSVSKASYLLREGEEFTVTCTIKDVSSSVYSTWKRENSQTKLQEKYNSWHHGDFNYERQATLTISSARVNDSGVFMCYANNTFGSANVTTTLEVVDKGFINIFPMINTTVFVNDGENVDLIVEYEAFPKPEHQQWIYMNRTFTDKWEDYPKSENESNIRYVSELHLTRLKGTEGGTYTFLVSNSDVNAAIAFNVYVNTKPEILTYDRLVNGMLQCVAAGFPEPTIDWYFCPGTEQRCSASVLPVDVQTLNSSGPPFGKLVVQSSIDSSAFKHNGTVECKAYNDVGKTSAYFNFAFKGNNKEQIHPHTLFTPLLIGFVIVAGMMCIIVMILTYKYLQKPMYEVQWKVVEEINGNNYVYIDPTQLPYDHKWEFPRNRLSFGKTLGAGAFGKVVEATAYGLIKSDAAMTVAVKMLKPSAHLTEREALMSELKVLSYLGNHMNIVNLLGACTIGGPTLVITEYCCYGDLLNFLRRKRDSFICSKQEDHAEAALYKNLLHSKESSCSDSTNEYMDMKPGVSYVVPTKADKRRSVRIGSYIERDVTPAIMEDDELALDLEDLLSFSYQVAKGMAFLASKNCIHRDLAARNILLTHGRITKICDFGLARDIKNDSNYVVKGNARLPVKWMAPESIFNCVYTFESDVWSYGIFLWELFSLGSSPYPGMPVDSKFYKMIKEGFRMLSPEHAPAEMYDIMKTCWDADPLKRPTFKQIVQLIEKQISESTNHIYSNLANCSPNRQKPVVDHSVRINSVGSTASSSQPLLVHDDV

[13] = biological target: Dual specificity mitogen-activated protein kinase kinase 7 (Homo sapiens) (UniProt O14733); conditions: Compound concentration 1000.0 nM
[14] = system: Phosphatidylinositol 4,5-bisphosphate 3-kinase catalytic subunit alpha isoform (Homo sapiens), P42336 [E542K]; conditions: Compound concentration 1000.0 nM
Sequence of Phosphatidylinositol 4,5-bisphosphate 3-kinase catalytic subunit alpha isoform (Homo sapiens), P42336 [E542K] (P42336 whole entry E542K, canonical isoform): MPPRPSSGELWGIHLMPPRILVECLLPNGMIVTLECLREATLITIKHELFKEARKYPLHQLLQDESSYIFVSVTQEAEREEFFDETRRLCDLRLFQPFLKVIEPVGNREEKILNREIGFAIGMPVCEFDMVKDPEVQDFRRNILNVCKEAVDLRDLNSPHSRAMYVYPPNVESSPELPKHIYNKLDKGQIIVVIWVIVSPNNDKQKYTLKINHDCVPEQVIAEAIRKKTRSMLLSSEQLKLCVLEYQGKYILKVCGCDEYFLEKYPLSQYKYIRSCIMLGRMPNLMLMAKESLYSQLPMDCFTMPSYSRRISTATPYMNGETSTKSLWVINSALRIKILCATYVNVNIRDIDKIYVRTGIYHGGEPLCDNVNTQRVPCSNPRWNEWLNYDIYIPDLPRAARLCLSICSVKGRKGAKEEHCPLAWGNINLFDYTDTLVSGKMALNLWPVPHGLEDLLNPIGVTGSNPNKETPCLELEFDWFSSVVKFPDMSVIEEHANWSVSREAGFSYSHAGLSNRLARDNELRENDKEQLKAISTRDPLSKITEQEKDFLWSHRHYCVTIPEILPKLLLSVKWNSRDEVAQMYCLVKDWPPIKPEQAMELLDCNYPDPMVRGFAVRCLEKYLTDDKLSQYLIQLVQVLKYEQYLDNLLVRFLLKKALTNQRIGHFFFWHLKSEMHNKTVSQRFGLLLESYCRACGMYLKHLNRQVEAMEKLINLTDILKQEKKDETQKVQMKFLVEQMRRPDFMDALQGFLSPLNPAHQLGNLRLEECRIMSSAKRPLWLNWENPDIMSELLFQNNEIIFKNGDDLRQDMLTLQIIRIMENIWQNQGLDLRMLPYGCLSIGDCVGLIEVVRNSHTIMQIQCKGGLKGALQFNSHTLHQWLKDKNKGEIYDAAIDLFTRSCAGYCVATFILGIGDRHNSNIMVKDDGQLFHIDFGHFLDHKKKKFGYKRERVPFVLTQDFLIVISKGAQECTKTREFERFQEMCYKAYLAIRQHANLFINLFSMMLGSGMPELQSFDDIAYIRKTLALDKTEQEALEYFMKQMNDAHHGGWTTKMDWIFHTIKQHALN

[15] = biological target: Ribosomal protein S6 kinase alpha-3 (Homo sapiens) (UniProt P51812); conditions: Compound concentration 1000.0 nM
Sequence of Ribosomal protein S6 kinase alpha-3 (Homo sapiens) (P51812 whole entry): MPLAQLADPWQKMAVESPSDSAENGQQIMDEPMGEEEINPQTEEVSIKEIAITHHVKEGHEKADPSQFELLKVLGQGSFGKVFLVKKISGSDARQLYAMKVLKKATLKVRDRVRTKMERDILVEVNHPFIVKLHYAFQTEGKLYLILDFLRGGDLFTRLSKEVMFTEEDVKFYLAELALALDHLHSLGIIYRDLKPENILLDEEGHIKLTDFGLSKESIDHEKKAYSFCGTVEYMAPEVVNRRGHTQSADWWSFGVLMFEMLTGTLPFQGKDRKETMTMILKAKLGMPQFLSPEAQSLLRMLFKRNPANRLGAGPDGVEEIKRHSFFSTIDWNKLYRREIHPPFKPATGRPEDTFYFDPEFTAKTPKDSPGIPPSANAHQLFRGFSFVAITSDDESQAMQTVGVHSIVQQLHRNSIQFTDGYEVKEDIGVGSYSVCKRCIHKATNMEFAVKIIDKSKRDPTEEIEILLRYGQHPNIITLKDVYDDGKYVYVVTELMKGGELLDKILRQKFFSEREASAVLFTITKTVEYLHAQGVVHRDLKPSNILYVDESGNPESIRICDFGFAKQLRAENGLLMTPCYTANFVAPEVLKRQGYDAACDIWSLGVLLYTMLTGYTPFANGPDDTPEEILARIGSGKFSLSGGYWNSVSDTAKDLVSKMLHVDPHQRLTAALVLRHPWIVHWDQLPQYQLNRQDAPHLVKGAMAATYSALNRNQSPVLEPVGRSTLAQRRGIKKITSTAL

[16] = biological target: SRSF protein kinase 3 (Homo sapiens) (UniProt Q9UPE1); conditions: Compound concentration 1000.0 nM
[17] = biological target: 5-hydroxytryptamine receptor 6 (Homo sapiens) (UniProt P50406); conditions: Compound concentration 10.0 uM
[18] = biological target: 5-hydroxytryptamine receptor 7 (Homo sapiens) (UniProt P34969); conditions: Compound concentration 10.0 uM
[19] = biological target: Sodium-dependent serotonin transporter (Homo sapiens) (UniProt P31645); conditions: Compound concentration 10.0 uM
[20] = biological target: Histamine H3 receptor (Homo sapiens) (UniProt Q9Y5N1); conditions: Compound concentration 10.0 uM
[21] = biological target: Histamine H4 receptor (Homo sapiens) (UniProt Q9H3N8); conditions: Compound concentration 10.0 uM
[22] = biological target: 5-hydroxytryptamine receptor 2A (Homo sapiens, UniProt P28223); assay: GPCRScan assay: inhibition of 5-HT2A; design: radioligand conc. used [nm] 1.2 – 2.4, parental cells HEKT
[23] = biological target: 5-hydroxytryptamine receptor 2C (Homo sapiens, UniProt P28335); assay: GPCRScan assay: inhibition of 5-HT2C; design: radioligand conc. used [nm] 1.0 – 2.5, parental cells HEK T
[24] = biological target: Sodium-dependent dopamine transporter (Homo sapiens, UniProt Q01959); assay: GPCRScan assay: inhibition of DAT; design: radioligand conc. used [nm] 3.6 – 16.0, parental cells stable HEK
[25] = biological target: Delta-type opioid receptor (Homo sapiens, UniProt P41143); assay: GPCRScan assay: inhibition of DOR; design: radioligand conc. used [nm] 1.0 – 2.0, parental cells stable HEK
[26] = biological target: Alpha-2B adrenergic receptor (Homo sapiens, UniProt P18089); assay: GPCRScan assay: inhibition of Alpha2B; design: radioligand conc. used [nm] 1.5 – 2.0, parental cells HEKT
[27] = biological target: Alpha-2C adrenergic receptor (Homo sapiens, UniProt P18825); assay: GPCRScan assay: inhibition of Alpha2C; design: radioligand conc. used [nm] 0.5 – 1.0, parental cells stable MDCK
[28] = biological target: Beta-3 adrenergic receptor (Homo sapiens, UniProt P13945); assay: GPCRScan assay: inhibition of Beta3; design: radioligand conc. used [nm] 0.2 – 0.5, parental cells HEK Flp-In
[29] = biological target: GABA-A receptor; anion channel; assay: GPCRScan assay: inhibition of GABAA/BZP; assay type: protein-complex assay, Rattus norvegicus; design: radioligand conc. used [nm] 0.6 – 4.0, parental cells brain tissue
Cannabinoid receptor 1 [30] = biological target: T1, Cannabinoid receptor 1; assay: Radioligand Binding Assay (CNR1)
[31] = biological target: 5-hydroxytryptamine receptor 1A (Homo sapiens) (UniProt P08908); conditions: Compound concentration 10.0 uM
[32] = biological target: 5-hydroxytryptamine receptor 1E (Homo sapiens) (UniProt P28566); conditions: Compound concentration 10.0 uM
[33] = biological target: GABA-A receptor; anion channel (Rattus norvegicus) (UniProt O09028+P15431+P18506+P18508+P19969+P20236+P23574+P23576+P28471+P28473+P30191+P62813+P63079+P63138+Q91ZM7+Q9ES14); conditions: Compound concentration 10.0 uM
[34] = biological target: Beta-1 adrenergic receptor (Homo sapiens) (UniProt P08588); conditions: Compound concentration 10.0 uM

CC(=O)Nc1c(C(C)=O)c(=O)n(C)c2nc(-c3ccc(Cl)cc3Cl)c(-c3ccc(Cl)cc3)cc12 [NAPHTHYRIDINONE]
Ki [1]: 82 nM | pKi [1]: 7.09 | Ki [2]: 605 nM | Ki [3]: 1160 nM | EC50 (Cannabinoid receptor 1 [4]): 4.9 nM (active) | residual activity [5]: 100% | residual activity [6]: 100% | residual activity [7]: 100% | residual activity [8]: 100% | residual activity [9]: 100% | residual activity [10]: 100% | residual activity [11]: 82% | residual activity [12]: 100% | residual activity [13]: 100% | residual activity [14]: 94% | residual activity [15]: 99% | residual activity [16]: 100% | inhibition [17]: -3.97% | inhibition [18]: 0.657% | inhibition [19]: -9.53% | inhibition [20]: -2.68% | inhibition [21]: 13.9%

CC(=O)c1c(NS(C)(=O)=O)c2cc(-c3ccc(Cl)cc3)c(-c3ccc(Cl)cc3Cl)nc2n(C)c1=O [MRL-CB1-NC]
Ki [22]: 1810 nM | Ki [23]: 22 nM | Ki ([24]; read-out: Ki): 766 nM | Ki ([24]; read-out: pKi (converted)): 794 nM | Ki [25]: 1410 nM | Ki [26]: 1690 nM | Ki [27]: 10000 nM | Ki [28]: 1130 nM | Ki [29]: 1660 nM | Inverse agonism (Cannabinoid receptor 1 [30]): 32.5% | residual activity [5]: 85% | residual activity [6]: 100% | residual activity [7]: 83% | residual activity [8]: 100% | residual activity [9]: 92% | residual activity [10]: 100% | residual activity [11]: 89% | residual activity [12]: 100% | residual activity [13]: 100% | residual activity [14]: 76% | residual activity [15]: 100% | residual activity [16]: 100% | inhibition [31]: 28.7% | inhibition [32]: 29.2% | inhibition [33]: 0.954% | inhibition [20]: 0.553% | inhibition [34]: 25.6%
